The experiment concerns the target T1, GCase (Homo sapiens, UniProt P04062).
T1 construct: endogenous in cells; host or cells: HeLa cells
T1 sequence (P04062 40-536): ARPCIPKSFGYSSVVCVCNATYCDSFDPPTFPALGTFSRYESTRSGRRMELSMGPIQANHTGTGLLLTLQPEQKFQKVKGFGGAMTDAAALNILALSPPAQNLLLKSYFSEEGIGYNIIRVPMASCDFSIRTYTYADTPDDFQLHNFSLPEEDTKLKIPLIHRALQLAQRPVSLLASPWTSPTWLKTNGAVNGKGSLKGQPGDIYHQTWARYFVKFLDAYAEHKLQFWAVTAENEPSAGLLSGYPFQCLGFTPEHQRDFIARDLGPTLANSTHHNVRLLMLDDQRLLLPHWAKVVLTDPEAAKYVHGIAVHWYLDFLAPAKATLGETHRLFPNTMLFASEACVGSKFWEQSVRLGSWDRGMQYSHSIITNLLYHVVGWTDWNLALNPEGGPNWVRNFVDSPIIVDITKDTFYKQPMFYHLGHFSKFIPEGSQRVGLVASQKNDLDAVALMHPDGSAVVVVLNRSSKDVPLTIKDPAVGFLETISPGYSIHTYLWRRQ
The experiment is described as follows: activation of GCase in a live cell PFB assay in HELA cells. Type of experiment: cell-based. As to the method:
Exemplary compounds were evaluated for activation of GCase in a live cell PFB assay in HELA cells (essentially as described in Ysselstein et al., “LRRK2 kinase activity regulates lysosomal glucocerebrosidase in neurons derived from Parkinson's disease patients” Nature Communications (2019) 10:5570). […] EC50 ranges: A: <10 μM; B: >10-50 μM; C: >50-100 μM; D: >100 μM.

Where [1] appears, read: activation of GCase, EC50 ranges.

A word on the EC50: it is the midpoint of the concentration-response curve. Low readings indicate a more potent agent, high ones a less potent agent. `Cn1c(N2CCC3(CN(c4ccnc(C(F)(F)F)c4)C3)C2)nc2c(cnn2CC(F)F)c1=O` [Cmpd 989] displayed an EC50 (EC50 given as range classes) greater than 100 µM.

`Fc1cc(F)cc(OC2CC3(CCCN(c4cnc5cnn(CC(F)(F)F)c5n4)C3)C2)c1` (centres unmarked) [Compound 33, 2-(3,5-difluorophenoxy)-6-[1-(2,2,2-trifluoroethyl)-1H-pyrazolo[3,4-b]pyrazin-6-yl]-6-azaspiro[3.5]nonane] returned an EC50 under setting [1] of 10 to 50 µM.

Consider `Cc1nn(CC(F)F)c2nc(N3CCC4(CCN(c5cc(C(F)(F)F)ccn5)C4)CC3)cnc12` [Compound 178, 8-[1-(2,2-difluoroethyl)-3-methyl-1H-pyrazolo[3,4-b]pyrazin-6-yl]-2-[4-(trifluoromethyl)pyridin-2-yl]-2,8-diazaspiro[4.5]decane], for which the EC50 (EC50 given as range classes) fell in the range of 10 to 50 µM.

The compound `O=C1N(c2ccnc(C(F)(F)F)c2)CCC12CCN(c1cnc3cnn(CC(F)F)c3n1)C2` (centres unmarked) [Cmpd 517] yielded an EC50 under setting [1] of less than 10 µM.

With `FC(F)Cn1ncc2ncc(N3CC4(CCCN(c5ccnc(C(F)(F)F)c5)C4)C3)nc21` [Compound 8, 2-[1-(2,2-difluoroethyl)-1H-pyrazolo[3,4-b]pyrazin-6-yl]-6-[2-(trifluoromethyl)pyridin-4-yl]-2,6-diazaspiro[3.5]nonane], the EC50 under setting [1] is less than 10 µM.

The compound `CC(C)c1ncc(N2CC3(CCN(c4cnc5cnn(CC(F)F)c5n4)C3)C2)cn1` [Cmpd 559] displayed an EC50 under setting [1] of 10 to 50 µM.

For the compound `CC(F)(F)Cn1ncc2ncc(N3CCC4(CN(c5ccnc(C(F)(F)F)c5)C4)C3)nc21` [Cmpd 1116], the EC50 under setting [1] lay in the range of 10 to 50 µM.

As to `FC(F)(F)c1cc(N2CC3(CCN(c4cnc5cnn(C[C@H]6CCO6)c5n4)C3)C2)ccn1` [Cmpd 934], the EC50 under setting [1] was less than 10 µM.

With `O=C1N(c2ccc(C(F)(F)F)cn2)C2(CC2)CC12CCN(c1cnc3cnn(CC(F)F)c3n1)CC2` [Cmpd 312], the EC50 under setting [1] is 50 to 100 µM.

As to `CCC1N(c2cc(C(F)(F)F)ccn2)C(=O)CC12CCN(c1cnc3cnn(CC(F)F)c3n1)CC2` (centres unmarked) [Cmpd 663], the EC50 under setting [1] fell in the range of 10 to 50 µM.

Take `Cc1nc(N2CC3(CCN(c4cncc(-c5nncs5)n4)C3)C2)cc(C(F)(F)F)n1` [Cmpd 505]: the EC50 under setting [1] was greater than 100 µM.

On to `O=C(c1cccc(OC(F)F)c1)N1CC2(CCN(c3cnc4cnn(CC(F)F)c4n3)C2)C1` [Cmpd 435], for which, under setting [1], the EC50 is less than 10 µM.

Consider `O=C1N(c2cc(C(F)(F)F)ccn2)CCC12CCN(c1cncc(N3CCCC3)n1)CC2` [Cmpd 245], for which the EC50 under setting [1] was 10 to 50 µM.

As to `O=C1CC2(CN1c1ccnc(C(F)(F)F)c1)C1CC2CN(c2cnc3cnn(CC(F)F)c3n2)C1` (centres unmarked) [Cmpd 721], the EC50 under setting [1] is greater than 100 µM.

Compound `COc1nc(C(F)(F)F)ncc1N1CCC2(CCN(c3cnc4cnn(CC(F)F)c4n3)CC2)C1` [Cmpd 787] returned an EC50 (EC50 given as range classes) of less than 10 µM.

The compound `CCN1C(=O)N(c2ccc(C(F)(F)F)nc2)C(=O)C12CCN(c1cnc3c(C)nn(CC(F)F)c3n1)CC2` [Cmpd 871] gave an EC50 under setting [1] of 10 to 50 µM.

Under “EC50 given as range classes”, `Cc1nn(CC(F)F)c2nc(N3CC4(CC3=O)CN(c3ccnc(C(F)(F)F)c3)C4)ncc12` [Cmpd 1006] showed an EC50 of 10 to 50 µM.

`FC(F)Cn1ncc2ncc(NC3CCC4(CCN(c5ccc(C(F)(F)F)nc5)C4)C3)nc21` (centres unmarked) [Cmpd 193] displayed an EC50 (EC50 given as range classes) of 10 to 50 µM.

On to `O=C1CC2(CCN(c3cnc4cnn(CC(F)F)c4n3)C2)CN1c1ccc(C(F)(F)F)nc1` (centres unmarked) [Cmpd 498], for which, under setting [1], the EC50 lay in the range of 10 to 50 µM.

In turn, `FC(F)Cn1ncc2ncc(N3CC4(CCCN(c5cc(C(F)(F)F)ccn5)C4)C3)nc21` [Compound 21, 2-[1-(2,2-difluoroethyl)-1H-pyrazolo[3,4-b]pyrazin-6-yl]-6-[4-(trifluoromethyl)pyridin-2-yl]-2,6-diazaspiro[3.5]nonane] returned an EC50 under setting [1] of 10 to 50 µM.

`O=C1N(c2cncc(C(F)(F)F)n2)CCC12CCN(c1cnc3cnn(C4COC4)c3n1)CC2` [Cmpd 276] displayed an EC50 under setting [1] of 10 to 50 µM.

On to `Cc1nc(C(F)(F)F)ncc1N1CCC2(CCN(c3nc4c(cnn4CC(F)F)c(=O)n3C)CC2)C1` [Cmpd 1086], for which, under setting [1], the EC50 fell in the range of 10 to 50 µM.

Take `O=C1N(c2cccc(C(F)(F)F)n2)CCC12CCN(c1cnc3cnn(CC(F)F)c3n1)C2` (centres unmarked) [Cmpd 203]: the EC50 (EC50 given as range classes) lay in the range of 10 to 50 µM.

`O=C1N(c2cnc3cnn(CC(F)F)c3n2)CCC12CCN(c1ccc(C(F)(F)F)nc1)C2` (centres unmarked) [Cmpd 519]: under setting [1], the EC50 lay in the range of 10 to 50 µM.

Compound `Cc1nc(N2CC3(CCN(c4cnc5c(C)nn(CC(F)(F)F)c5n4)C3)C2)cc(C(F)(F)F)n1` [Cmpd 608] showed an EC50 (EC50 given as range classes) of 50 to 100 µM.

Turning to `FC(F)Cn1ncc2ncc(N3CCC4(CN(c5cnc(OCC(F)(F)F)nc5)C4)C3)nc21` [Cmpd 439], the EC50 under setting [1] was 10 to 50 µM.

As to `O=C1CC2(CCN(c3cnc4cnn(CC(F)F)c4n3)CC2)CN1Cc1cc(F)cc(F)c1` [Cmpd 363], under setting [1], the EC50 was less than 10 µM.

Under setting [1], `FC(F)(F)COc1cncc(N2CCC3(CCN(c4ccc(C(F)(F)F)nc4)C3)CC2)n1` [Cmpd 243] registered an EC50 of less than 10 µM.

Under setting [1], `Cc1nn(CC(F)F)c2nc(N3CC4(CCN(c5ccnc(C(F)(F)F)c5)C4)C3)cnc12` [Cmpd 353] displayed an EC50 of less than 10 µM.

Regarding `FC(F)Cn1ncc2ncc(N3CCC4(CC3)CC(Oc3cncc(C(F)(F)F)c3)C4)nc21` [Cmpd 704], the EC50 under setting [1] was less than 10 µM.

With `Cc1nc(C(F)(F)F)ncc1N1CCC2(CCN(c3cnc4cnn(CC(F)F)c4n3)CC2)C1` [Cmpd 761], the EC50 under setting [1] is less than 10 µM.

`O=C1CC2(CCN(c3cnc4cnn(C5COC5)c4n3)CC2)CN1c1cnc(C(F)(F)F)cn1` [Cmpd 862] returned an EC50 under setting [1] greater than 100 µM.

In turn, `FC(F)Cn1ncc2ncc(N3CC4(CCN(c5cnccc5C(F)(F)F)CC4)C3)nc21` [Compound 128, 2-[1-(2,2-difluoroethyl)-1H-pyrazolo[3,4-b]pyrazin-6-yl]-7-[4-(trifluoromethyl)pyridin-3-yl]-2,7-diazaspiro[3.5]nonane] registered an EC50 under setting [1] of 10 to 50 µM.

In the case of `COc1ncc(N2CCC3(CN(c4cnc(C(F)(F)F)nc4)C3)C2)nc1-c1nncs1` [Cmpd 1022], the EC50 (EC50 given as range classes) is greater than 100 µM.

Regarding `FC(F)(F)c1cc(N2CCC3(C2)CN(c2ncc4cnn(C5COC5)c4n2)C3)ccn1` [Cmpd 376], the EC50 under setting [1] was in the range of 10 to 50 µM.

As to `O=C1N(c2cnc3cnn(CC(F)F)c3n2)CCC12CCN(c1ncccc1C(F)(F)F)CC2` [Compound 120, 2-[1-(2,2-difluoroethyl)-1H-pyrazolo[3,4-b]pyrazin-6-yl]-8-[3-(trifluoromethyl)pyridin-2-yl]-2,8-diazaspiro[4.5]decan-1-one], the EC50 under setting [1] was less than 10 µM.

Under setting [1], `Cc1cc(N2CC3(CCN(c4ncc5cnn(CC(F)(F)F)c5n4)C3)C2)nc(C(F)(F)F)n1` [Cmpd 467] returned an EC50 of less than 10 µM.

In the case of `Cc1nc(N2CCC3(CC2)CN(c2ncc4cnn(CC(F)F)c4n2)C3)cc(C(F)(F)F)n1` [Cmpd 586], the EC50 (EC50 given as range classes) lay in the range of 10 to 50 µM.

The compound `Cc1nn(C2COC2)c2nc(N3CCC4(CN(c5cnc(C(F)(F)F)nc5)C4)C3)cnc12` [Cmpd 428] displayed an EC50 (EC50 given as range classes) of less than 10 µM.

`O=C1N(Cc2cncc(F)c2)CCC12CCN(c1cnc3cnn(CC(F)F)c3n1)CC2` [Cmpd 331] displayed an EC50 under setting [1] of 10 to 50 µM.

With `O=C1N(Cc2cnc(C(F)(F)F)cn2)CCC12CCN(c1cnc3cnn(CC(F)F)c3n1)CC2` [Cmpd 927], the EC50 under setting [1] was 10 to 50 µM.

Compound `O=C1N(c2ncc3cnn(CC(F)F)c3n2)CCC12CN(c1ccnc(C(F)(F)F)c1)C2` [Cmpd 999] yielded an EC50 (EC50 given as range classes) of 10 to 50 µM.

Compound `O=C1N(Cc2cnc(C(F)(F)F)s2)CCC12CCN(c1cnc3cnn(CC(F)F)c3n1)CC2` [Cmpd 366] yielded an EC50 under setting [1] of less than 10 µM.

Regarding `Cc1nc(N2CC3(CCN(c4cnc5cnn(C)c5n4)C3)C2)cc(C(F)(F)F)n1` [Cmpd 649], the EC50 under setting [1] lay within 10 to 50 µM.

As to `COc1cc(N2CC3(CCN(c4cnc5cnn(CC(F)F)c5n4)C3)C2)ccn1` [Cmpd 929], the EC50 under setting [1] lay within 10 to 50 µM.

`Cc1cc(N2CC3(CCN(c4ncc5cnn(CC(C)(F)F)c5n4)C3)C2)nc(C(F)(F)F)n1` [Cmpd 1076]: under setting [1], the EC50 was in the range of 10 to 50 µM.

For `FC(F)Cn1ncc2ncc(N3CCC4(CCN(c5cncc(C(F)(F)F)n5)C4)CC3)nc21` [Cmpd 733], the EC50 under setting [1] was less than 10 µM.

`FC(F)Cn1ncc2cnc(N3CCC4(CCN(c5ccc(C(F)(F)F)nc5)C4)CC3)nc21` [Cmpd 827]: the EC50 (EC50 given as range classes) was 10 to 50 µM.

On to `O=C1CC2(CCN(c3ncc4cnn(CC(F)F)c4n3)CC2)CN1c1ccnc(C(F)(F)F)n1` [Cmpd 901], for which, under setting [1], the EC50 is less than 10 µM.

The compound `FC(F)Cn1ncc2ncc(N3CCC4(CCC(Oc5cc(C(F)(F)F)ccn5)C4)CC3)nc21` (centres unmarked) [Cmpd 692] displayed an EC50 under setting [1] of 10 to 50 µM.

`O=C1CC2(CCN(c3cnc4cnn(CC(F)F)c4n3)CC2)CN1c1cnccc1C(F)(F)F` [Cmpd 682] returned an EC50 under setting [1] of 10 to 50 µM.

With `Cc1nc(N2CCC3(CCN(c4cnc5c(C)nn(CC(F)(F)F)c5n4)C3)C2)cc(C(F)(F)F)n1` (centres unmarked) [Cmpd 604], the EC50 (EC50 given as range classes) is greater than 100 µM.

On to `FC(F)Cn1ncc2ncc(N3CCC4(CC3)CC(COc3ccncc3C(F)(F)F)C4)nc21` [Cmpd 698], for which, under setting [1], the EC50 is less than 10 µM.

Regarding `O=S(=O)(c1ccc(C(F)(F)F)nc1)N1CC2(CCN(c3cnc4cnn(CC(F)F)c4n3)C2)C1` [Cmpd 414], the EC50 (EC50 given as range classes) fell in the range of 10 to 50 µM.

As for `Cc1nc(N2CC3(CCN(c4cnc5c(C)nn(C6COC6)c5n4)CC3)CC2=O)cc(C(F)(F)F)n1` [Cmpd 459], the EC50 under setting [1] fell in the range of 10 to 50 µM.

In the case of `Cc1cc(N2CC3(CCN(c4ncc5cnn(CC(F)F)c5n4)C3)C2)nc(C)n1` [Cmpd 642], the EC50 under setting [1] lay within 10 to 50 µM.

The record behind these values is patent US20250034170A1, “SMALL MOLECULE MODULATORS OF GLUCOCEREBROSIDASE ACTIVITY AND USES THEREOF” (Vanqua Bio, Inc., priority 2021, published 2025).
